Experiments:
[1] = tested on: A549-ACE2 infected with SARS-CoV-2; assay: morphology score (similarity to uninfected cells); higher = more like uninfected cells; settings: 24 h
HepG2 [2] = assay: drug sensitivity score (DSS) for viability; higher = more toxic; extreme values may be limits of the assay; settings: 72 h
Vero E6 [3] = assay: as above; settings: 72 h
Calu-3 [4] = assay: as above; settings: 72 h
Caco-2 [5] = assay: as above; settings: 72 h
U2OS [6] = assay: as above; settings: 72 h
HepG2 [7] = assay: cell viability relative to DMSO; higher = less toxic; settings: 72 h
Vero E6 [8] = assay: as above; settings: 72 h
Calu-3 [9] = assay: as above; settings: 72 h
Caco-2 [10] = assay: as above; settings: 72 h
U2OS [11] = assay: as above; settings: 72 h
A549-ACE2 = assay: drug-induced phospholipidosis relative to tamoxifen; higher = more phospholipidosis
[12] = tested on: A549-ACE2 infected with SARS-CoV-2; assay: SARS-CoV-2 infection rate relative to DMSO; higher = more infection; settings: 24 h
[13] = tested on: A549-ACE2 infected with SARS-CoV-2; assay: cell count relative to DMSO; higher = less toxic; settings: 24 h
HepG2 [14] = assay: relative viability EC50 (midpoint between 100% and the lowest measured viability); higher = less toxic; settings: 72 h
Vero E6 [15] = assay: as above; settings: 72 h
Calu-3 [16] = assay: as above; settings: 72 h
Caco-2 [17] = assay: as above; settings: 72 h
U2OS [18] = assay: as above; settings: 72 h

## CC(C)(C)c1ccc(-c2nc3ccccc3[nH]2)cc1 [ZLN005]
[1]; 0.3 µM
  morphology score: 0.14
[1]; 3 µM
  morphology score: 0.37
[1]; 10 µM
  morphology score: 0.7
[1]; 30 µM
  morphology score: 0.77
HepG2 [2]
  drug sensitivity score: 1.3
Vero E6 [3]
  drug sensitivity score: 0.6
Calu-3 [4]
  drug sensitivity score: 4.6
Caco-2 [5]
  drug sensitivity score: 4.9
U2OS [6]
  drug sensitivity score: 1.3
HepG2 [7]; 1 nM
  cell viability: 94.6%
HepG2 [7]; 10 nM
  cell viability: 98.2%
HepG2 [7]; 100 nM
  cell viability: 96.2%
HepG2 [7]; 1000 nM
  cell viability: 96.6%
HepG2 [7]; 10000 nM
  cell viability: 77.4%
Vero E6 [8]; 1 nM
  cell viability: 92.8%
Vero E6 [8]; 10 nM
  cell viability: 98.6%
Vero E6 [8]; 100 nM
  cell viability: 94.1%
Vero E6 [8]; 1000 nM
  cell viability: 92.7%
Vero E6 [8]; 10000 nM
  cell viability: 81.6%
Calu-3 [9]; 1 nM
  cell viability: 87.7%
Calu-3 [9]; 10 nM
  cell viability: 94.1%
Calu-3 [9]; 100 nM
  cell viability: 105%
Calu-3 [9]; 1000 nM
  cell viability: 88.1%
Calu-3 [9]; 10000 nM
  cell viability: 49.4%
Caco-2 [10]; 1 nM
  cell viability: 91.8%
Caco-2 [10]; 10 nM
  cell viability: 99.8%
Caco-2 [10]; 100 nM
  cell viability: 97.1%
Caco-2 [10]; 1000 nM
  cell viability: 84%
Caco-2 [10]; 10000 nM
  cell viability: 49.4%
U2OS [11]; 1 nM
  cell viability: 101%
U2OS [11]; 10 nM
  cell viability: 94.2%
U2OS [11]; 100 nM
  cell viability: 97.7%
U2OS [11]; 1000 nM
  cell viability: 90.7%
U2OS [11]; 10000 nM
  cell viability: 78.4%
A549-ACE2; 0.3 µM, 24 h
  drug-induced phospholipidosis: 3.54%
A549-ACE2; 0.3 µM, 48 h
  drug-induced phospholipidosis: 4.21%
A549-ACE2; 0.3 µM, 72 h
  drug-induced phospholipidosis: 2.86%
A549-ACE2; 0.833333 µM, 24 h
  drug-induced phospholipidosis: -4.68%
A549-ACE2; 0.833333 µM, 48 h
  drug-induced phospholipidosis: -3.33%
A549-ACE2; 0.833333 µM, 72 h
  drug-induced phospholipidosis: -4.87%
A549-ACE2; 3.33333 µM, 24 h
  drug-induced phospholipidosis: -5.18%
A549-ACE2; 3.33333 µM, 48 h
  drug-induced phospholipidosis: -5.71%
A549-ACE2; 3.33333 µM, 72 h
  drug-induced phospholipidosis: -1.84%
A549-ACE2; 6.66667 µM, 24 h
  drug-induced phospholipidosis: -7.34%
A549-ACE2; 6.66667 µM, 48 h
  drug-induced phospholipidosis: -7.4%
A549-ACE2; 6.66667 µM, 72 h
  drug-induced phospholipidosis: -5.31%
A549-ACE2; 10 µM, 24 h
  drug-induced phospholipidosis: -8.03%
A549-ACE2; 10 µM, 48 h
  drug-induced phospholipidosis: -10.6%
A549-ACE2; 10 µM, 72 h
  drug-induced phospholipidosis: -5.63%
A549-ACE2; 30 µM, 24 h
  drug-induced phospholipidosis: -10.2%
A549-ACE2; 30 µM, 48 h
  drug-induced phospholipidosis: -12.3%
A549-ACE2; 30 µM, 72 h
  drug-induced phospholipidosis: -6.24%
[12]; 0.3 µM
  SARS-CoV-2 infection rate: 99%
[12]; 3 µM
  SARS-CoV-2 infection rate: 87%
[12]; 10 µM
  SARS-CoV-2 infection rate: 57%
[12]; 30 µM
  SARS-CoV-2 infection rate: 32%
[13]; 0.3 µM
  cell count: 98%
[13]; 3 µM
  cell count: 113%
[13]; 10 µM
  cell count: 115%
[13]; 30 µM
  cell count: 110%
HepG2 [14]
  relative viability EC50: > 10 µM
Vero E6 [15]
  relative viability EC50: > 10 µM
Calu-3 [16]
  relative viability EC50: 1.6 µM
Caco-2 [17]
  relative viability EC50: 1.4 µM
U2OS [18]
  relative viability EC50: > 10 µM

## CCCCCN(CCCOC)C(=O)[C@@H](CCC(=O)O)NC(=O)c1ccc(Cl)c(Cl)c1 [dexloxiglumide]
HepG2 [2]
  drug sensitivity score: 0
Vero E6 [3]
  drug sensitivity score: 0
Calu-3 [4]
  drug sensitivity score: 0
Caco-2 [5]
  drug sensitivity score: 0.1
U2OS [6]
  drug sensitivity score: 0
HepG2 [7]; 1 nM
  cell viability: 94.5%
HepG2 [7]; 10 nM
  cell viability: 105%
HepG2 [7]; 100 nM
  cell viability: 89.6%
HepG2 [7]; 1000 nM
  cell viability: 104%
HepG2 [7]; 10000 nM
  cell viability: 108%
Vero E6 [8]; 1 nM
  cell viability: 89.4%
Vero E6 [8]; 10 nM
  cell viability: 97.8%
Vero E6 [8]; 100 nM
  cell viability: 91.1%
Vero E6 [8]; 1000 nM
  cell viability: 96.1%
Vero E6 [8]; 10000 nM
  cell viability: 109%
Calu-3 [9]; 1 nM
  cell viability: 100%
Calu-3 [9]; 10 nM
  cell viability: 93.3%
Calu-3 [9]; 100 nM
  cell viability: 96.4%
Calu-3 [9]; 1000 nM
  cell viability: 95.7%
Calu-3 [9]; 10000 nM
  cell viability: 93%
Caco-2 [10]; 1 nM
  cell viability: 92.1%
Caco-2 [10]; 10 nM
  cell viability: 82.1%
Caco-2 [10]; 100 nM
  cell viability: 87.5%
Caco-2 [10]; 1000 nM
  cell viability: 86.9%
Caco-2 [10]; 10000 nM
  cell viability: 107%
U2OS [11]; 1 nM
  cell viability: 92.2%
U2OS [11]; 10 nM
  cell viability: 92.1%
U2OS [11]; 100 nM
  cell viability: 99.5%
U2OS [11]; 1000 nM
  cell viability: 91.9%
U2OS [11]; 10000 nM
  cell viability: 104%
HepG2 [14]
  relative viability EC50: > 10 µM
Vero E6 [15]
  relative viability EC50: > 10 µM
Calu-3 [16]
  relative viability EC50: > 10 µM
Caco-2 [17]
  relative viability EC50: > 10 µM
U2OS [18]
  relative viability EC50: > 10 µM

## CCCCCCCCC(=O)N[C@H](CN1CCCC1)[C@H](O)c1ccc2c(c1)OCCO2
HepG2 [2]
  drug sensitivity score: 0
Vero E6 [3]
  drug sensitivity score: 0
Calu-3 [4]
  drug sensitivity score: 0
Caco-2 [5]
  drug sensitivity score: 0
U2OS [6]
  drug sensitivity score: 0
HepG2 [7]; 1 nM
  cell viability: 96.8%
HepG2 [7]; 10 nM
  cell viability: 105%
HepG2 [7]; 100 nM
  cell viability: 105%
HepG2 [7]; 1000 nM
  cell viability: 106%
HepG2 [7]; 10000 nM
  cell viability: 104%
Vero E6 [8]; 1 nM
  cell viability: 91.9%
Vero E6 [8]; 10 nM
  cell viability: 97.2%
Vero E6 [8]; 100 nM
  cell viability: 87.7%
Vero E6 [8]; 1000 nM
  cell viability: 90.4%
Vero E6 [8]; 10000 nM
  cell viability: 95.4%
Calu-3 [9]; 1 nM
  cell viability: 109%
Calu-3 [9]; 10 nM
  cell viability: 94.9%
Calu-3 [9]; 100 nM
  cell viability: 92.2%
Calu-3 [9]; 1000 nM
  cell viability: 92%
Calu-3 [9]; 10000 nM
  cell viability: 94.8%
Caco-2 [10]; 1 nM
  cell viability: 101%
Caco-2 [10]; 10 nM
  cell viability: 94.9%
Caco-2 [10]; 100 nM
  cell viability: 102%
Caco-2 [10]; 1000 nM
  cell viability: 111%
Caco-2 [10]; 10000 nM
  cell viability: 98.9%
U2OS [11]; 1 nM
  cell viability: 101%
U2OS [11]; 10 nM
  cell viability: 102%
U2OS [11]; 100 nM
  cell viability: 105%
U2OS [11]; 1000 nM
  cell viability: 98.5%
U2OS [11]; 10000 nM
  cell viability: 102%
HepG2 [14]
  relative viability EC50: > 10 µM
Vero E6 [15]
  relative viability EC50: > 10 µM
Calu-3 [16]
  relative viability EC50: > 10 µM
Caco-2 [17]
  relative viability EC50: > 10 µM
U2OS [18]
  relative viability EC50: > 10 µM

## CN(C)C(=O)[C@H](O)[C@H](Cc1ccccc1)NC(=O)c1cc2cc(Cl)ccc2[nH]1
HepG2 [2]
  drug sensitivity score: 0
Vero E6 [3]
  drug sensitivity score: 0
Calu-3 [4]
  drug sensitivity score: 0
Caco-2 [5]
  drug sensitivity score: 0
U2OS [6]
  drug sensitivity score: 0
HepG2 [7]; 1 nM
  cell viability: 103%
HepG2 [7]; 10 nM
  cell viability: 96%
HepG2 [7]; 100 nM
  cell viability: 106%
HepG2 [7]; 1000 nM
  cell viability: 105%
HepG2 [7]; 10000 nM
  cell viability: 106%
Vero E6 [8]; 1 nM
  cell viability: 108%
Vero E6 [8]; 10 nM
  cell viability: 94.6%
Vero E6 [8]; 100 nM
  cell viability: 102%
Vero E6 [8]; 1000 nM
  cell viability: 98.3%
Vero E6 [8]; 10000 nM
  cell viability: 106%
Calu-3 [9]; 1 nM
  cell viability: 96.2%
Calu-3 [9]; 10 nM
  cell viability: 104%
Calu-3 [9]; 100 nM
  cell viability: 97%
Calu-3 [9]; 1000 nM
  cell viability: 102%
Calu-3 [9]; 10000 nM
  cell viability: 102%
Caco-2 [10]; 1 nM
  cell viability: 87.2%
Caco-2 [10]; 10 nM
  cell viability: 97%
Caco-2 [10]; 100 nM
  cell viability: 96.2%
Caco-2 [10]; 1000 nM
  cell viability: 106%
Caco-2 [10]; 10000 nM
  cell viability: 96.8%
U2OS [11]; 1 nM
  cell viability: 95.4%
U2OS [11]; 10 nM
  cell viability: 102%
U2OS [11]; 100 nM
  cell viability: 90.5%
U2OS [11]; 1000 nM
  cell viability: 95.3%
U2OS [11]; 10000 nM
  cell viability: 97%
HepG2 [14]
  relative viability EC50: > 10 µM
Vero E6 [15]
  relative viability EC50: > 10 µM
Calu-3 [16]
  relative viability EC50: > 10 µM
Caco-2 [17]
  relative viability EC50: > 10 µM
U2OS [18]
  relative viability EC50: > 10 µM
